Numbers after ± are expanded uncertainties.
Assay: refractive index (Na D-line) (dimensionless); wn = mass fraction of the nth substance listed
Settings: 101 kPa, Liquid, Standard Abbe refractometry

CCO [ethanol] + O
refractive index
Settings | 288.15 K | 298.15 K | 308.15 K | 318.15 K
w1 = 0.02468 | 1.33491 ± 0.00041 | 1.33402 ± 0.00041 | 1.33282 ± 0.00041 | 1.33124 ± 0.00041
w1 = 0.0538 | 1.33686 ± 0.00041 | 1.33587 ± 0.00041 | 1.33455 ± 0.00041 | 1.33301 ± 0.00041
w1 = 0.07815 | 1.33854 ± 0.00041 | 1.33765 ± 0.00041 | 1.33619 ± 0.00041 | 1.33449 ± 0.00041
w1 = 0.1014 | 1.34032 ± 0.00041 | 1.33915 ± 0.00041 | 1.33771 ± 0.00041 | 1.3358 ± 0.00041
w1 = 0.1249 | 1.34209 ± 0.00041 | 1.34095 ± 0.00041 | 1.33923 ± 0.00041 | 1.33736 ± 0.00041
w1 = 0.1528 | 1.34443 ± 0.00041 | 1.34294 ± 0.00041 | 1.34104 ± 0.00041 | 1.33895 ± 0.00041
w1 = 0.1778 | 1.34627 ± 0.00041 | 1.34475 ± 0.00041 | 1.34272 ± 0.00041 | 1.34054 ± 0.00041
w1 = 0.2036 | 1.34829 ± 0.00041 | 1.34651 ± 0.00041 | 1.34435 ± 0.00041 | 1.3418 ± 0.00041
w1 = 0.225 | 1.34976 ± 0.00041 | 1.34781 ± 0.00041 | 1.34551 ± 0.00041 | 1.34311 ± 0.00041
w1 = 0.247 | 1.35137 ± 0.00041 | 1.34934 ± 0.00041 | 1.34682 ± 0.00041 | 1.34418 ± 0.00041
w1 = 0.2699 | 1.35281 ± 0.00041 | 1.35056 ± 0.00041 | 1.3479 ± 0.00041 | 1.34519 ± 0.00041
w1 = 0.2955 | 1.35435 ± 0.00042 | 1.35212 ± 0.00042 | 1.34922 ± 0.00041 | 1.3464 ± 0.00041
w1 = 0.3241 | 1.35595 ± 0.00042 | 1.35363 ± 0.00042 | 1.35053 ± 0.00042 | 1.34772 ± 0.00042
w1 = 0.3468 | 1.3572 ± 0.00042 | 1.3546 ± 0.00042 | 1.35164 ± 0.00042 | 1.34853 ± 0.00042
w1 = 0.3723 | 1.35843 ± 0.00042 | 1.35567 ± 0.00042 | 1.35252 ± 0.00042 | 1.34932 ± 0.00042
w1 = 0.3959 | 1.3597 ± 0.00042 | 1.35665 ± 0.00042 | 1.35342 ± 0.00042 | 1.34997 ± 0.00042
w1 = 0.4255 | 1.36073 ± 0.00042 | 1.35765 ± 0.00042 | 1.35448 ± 0.00042 | 1.35103 ± 0.00042
w1 = 0.4462 | 1.36161 ± 0.00042 | 1.35831 ± 0.00042 | 1.35501 ± 0.00042 | 1.35147 ± 0.00042
w1 = 0.4735 | 1.36235 ± 0.00042 | 1.35919 ± 0.00042 | 1.35566 ± 0.00042 | 1.35212 ± 0.00042
w1 = 0.4969 | 1.36316 ± 0.00042 | 1.35969 ± 0.00042 | 1.3562 ± 0.00042 | 1.35251 ± 0.00042
w1 = 0.5239 | 1.36378 ± 0.00042 | 1.36042 ± 0.00042 | 1.35667 ± 0.00042 | 1.35301 ± 0.00042
w1 = 0.5458 | 1.36431 ± 0.00042 | 1.36078 ± 0.00042 | 1.35731 ± 0.00042 | 1.3533 ± 0.00042
w1 = 0.5709 | 1.36482 ± 0.00042 | 1.36134 ± 0.00042 | 1.3577 ± 0.00042 | 1.35369 ± 0.00042
w1 = 0.5972 | 1.36547 ± 0.00042 | 1.36186 ± 0.00042 | 1.35801 ± 0.00042 | 1.35385 ± 0.00042
w1 = 0.6203 | 1.36582 ± 0.00042 | 1.36199 ± 0.00042 | 1.35825 ± 0.00042 | 1.35417 ± 0.00042
w1 = 0.6467 | 1.36603 ± 0.00042 | 1.36243 ± 0.00042 | 1.35839 ± 0.00042 | 1.3543 ± 0.00042
w1 = 0.6694 | 1.36636 ± 0.00042 | 1.36263 ± 0.00042 | 1.35867 ± 0.00042 | 1.35455 ± 0.00042
w1 = 0.6959 | 1.36665 ± 0.00042 | 1.36288 ± 0.00042 | 1.35875 ± 0.00042 | 1.35454 ± 0.00042
w1 = 0.7187 | 1.36663 ± 0.00042 | 1.36306 ± 0.00042 | 1.35892 ± 0.00042 | 1.35469 ± 0.00042
w1 = 0.7494 | 1.36702 ± 0.00042 | 1.36313 ± 0.00042 | 1.35895 ± 0.00042 | 1.35471 ± 0.00042
w1 = 0.7672 | 1.36703 ± 0.00042 | 1.36317 ± 0.00042 | 1.35902 ± 0.00042 | 1.35475 ± 0.00042
w1 = 0.7993 | 1.36694 ± 0.00042 | 1.36318 ± 0.00042 | 1.35879 ± 0.00042 | 1.35484 ± 0.00042
w1 = 0.8187 | 1.36705 ± 0.00042 | 1.3632 ± 0.00042 | 1.35887 ± 0.00042 | 1.35478 ± 0.00042
w1 = 0.8451 | 1.36683 ± 0.00042 | 1.36289 ± 0.00042 | 1.3586 ± 0.00042 | 1.35457 ± 0.00042
w1 = 0.867 | 1.36684 ± 0.00042 | 1.36278 ± 0.00042 | 1.35844 ± 0.00042 | 1.35421 ± 0.00042
w1 = 0.9028 | 1.36637 ± 0.00042 | 1.3623 ± 0.00042 | 1.35782 ± 0.00042 | 1.35374 ± 0.00042
w1 = 0.9235 | 1.36603 ± 0.00042 | 1.36196 ± 0.00042 | 1.35743 ± 0.00042 | 1.35333 ± 0.00042
w1 = 0.9481 | 1.36528 ± 0.00042 | 1.36123 ± 0.00042 | 1.35677 ± 0.00042 | 1.35255 ± 0.00042
w1 = 0.9752 | 1.36454 ± 0.00042 | 1.36037 ± 0.00042 | 1.3559 ± 0.00042 | 1.35171 ± 0.00042
w1 = 1 | 1.36344 ± 0.00042 | 1.35922 ± 0.00042 | 1.35477 ± 0.00042 | 1.35068 ± 0.00042

From the NIST ThermoML archive (doi:10.1021/je900266h)
